Test results taken from patent US4483989A, “Synthesis of pyrido[4,3-b]carbazole derivatives” (priority 1973, dated 1984).
Where “and” joins values, the source holds several entries; their conditions need not be identical. Equal entries are not always repeated. Where two headings read alike, the source gives them in different places.

Experiments:
[1] = system: mouse L 1210 leukemia; experiment: L1210 leukemia in mice: inoculum of 10^5 cells, single dose of compound 24 hours later; type: in vivo; conditions: for ILS (increased life span) %: inoculum 10^5 L1210 cells; for Increased life span (ILS) / Criterion (i): ILS higher than 100% / Chemotherapeutic index / Criterion (ii): occurrence of cured animals / Cured animals: L1210 in vivo; for Criterion (i): ILS higher than 100%: intraperitoneal injection of 10^5 cells; for Cured animals: cured/total
From the text: The experimental tumor mouse L 1210 leukemia is commonly used to evaluate the effects of all the antitumor compounds now used in human therapeutics,as was described, for example, by C. C. ZUBROD in Proc. Nat. Acad. Sci. USA 69, 1972, pp. 1042-1047. This experimentally formed tumoral system permits very accurate quantitative evaluation of the activity of the compound tested and also, consequently, an objective comparison of the respective activities of various compounds, for example, according to the methods described by H. E. SKIPPER, F. M. SCHABEL Jr. and W. S. WILCOX in Cancer Chemiother. Rep. 1964, pp. 1-111 and 45, 1965, pp. 5-28.
(§1) The mice were randomized in each experimental series. A first routine experiment enable the death rate by toxicity to be determined and thus established the sublethal doses.
According to the convention in force in this field, the animals which survived longer than 45 days after inoculation of tumoral cells were considered to be cured.
(§2) To evaluate the therapeutic activity of the compounds of the invention, doses of said compound were expressed basing them on the 30 days sublethal dose which was fixed at 1.
A--A tumoral inoculum of 10^5 L1210 leukemia cells was administered by the intraperitoneal way to twenty 2 to 3 months old DBA/2 strain female mice. 24 hours later, half of said mice received a single intraperitoneal injection of a variable dose of the compound to be tested and the same volume of solvent was administered to the other half of the mice by the same way; this latter half of the group of mice was therefore used as the control series. The mice were randomized in each experimental series.
Animals surviving for longer than 45 days were considered to be cured.

[2] = system: mouse L 1210 leukemia; experiment: as above; type: in vivo; conditions: for ILS (increased life span) %: I.V., dose 1 (the sublethal dose), inoculum 10^5 L1210 cells
[3] = for DLo (I.V.) / DLo (I.P.): mice; for DLo (I.P.): single i.p. injection
From the text: as §1, §2

[4] = Solubility; type: physicochemical
[5] = Metabolic studies in mice
[6] = Autoradiography with 14C-labeled molecules (biodisponibility); type: in vivo
From the text: To understand the increase of the antitumor efficiency of the quaternarized compounds, several parameters of action of 9--OH--E and its methyl derivative have been comparatively established (see table III). Both compounds have about the same affinity for DNA. On a weight basis, the methyl compound is about 10 times more toxic in mice but also 10 times more efficient on leukemic mice (ILS). […] Therefore, there is no quantitative parallel between the in vivo and in vitro action of these drugs. The N-quaternization markedly changes the biodisponibility of the drugs as shown by autoradiography with ^14 C-labeled molecules. […] Several ellipticine derivatives are mutagenic on Ames Salmonella test; however, the quaternized derivatives lose this property. The microsomes, which are able to metabolize some ellipticines, increase the mutagenic ability of these drugs in vitro. […] Due to the curved shape of their molecules, their relative hydrophobicity, and the presence of a heterocyclic nitrogen, the ellipticines are good substrates for the cytochrome P450 system, provided that the 2-N remains uncharged.

[7] = molecular target: DNA; experiment: DNA affinity; type: binding
[8] = I.P., dose 0.1 of the sublethal dose
[9] = I.P., dose 0.2 of the sublethal dose
[10] = I.P., dose 0.6 of the sublethal dose
[11] = I.P., dose 0.01 of the sublethal dose
[12] = I.P., dose 0.02 of the sublethal dose
[13] = I.P., dose 0.3 of the sublethal dose
[14] = I.P., dose 0.5 of the sublethal dose

Structure (SMILES) | ILS (increased life span) % [1, 8] | ILS (increased life span) % [1, 9] [%] | ILS (increased life span) % [1, 10] [%] | Criterion (i): ILS higher than 100% [1] | ILS (increased life span) % [2] [%] | DLo (I.V.) [3] [mg/kg] | DLo (I.P.) [3] [mg/kg] | ILS (increased life span) % [1, 11] [%] | ILS (increased life span) % [1, 12] [%] | ILS (increased life span) % [1, 13] [%] | ILS (increased life span) % [1, 14] [%] | Chemotherapeutic index [1] | Criterion (ii): occurrence of cured animals [1] | Cured animals ([1]; dose LDo /2) | further results
CC[n+]1ccc2c(C)c3c(c(C)c2c1)c1cc(O)ccc1n3C [9-hydroxy-6-methyl-2-ethyl-ellipticinium acetate] | 127% | 178 | 202 | + (increased life span (ILS) higher than 100% after intraperitoneal injection of 10^5 cells) | 115 | 5 | 50 |  |  |  |  |  |  |  | Increased life span (ILS) ([1]; dose ≈ LDo /2): 102%
CCn1c2ccc(O)cc2c2c(C)c3c[n+](CC)ccc3c(C)c21 [9-hydroxy-2,6-diethyl-ellipticinium acetate] |  |  |  |  |  |  |  |  |  |  |  |  |  |  | Solubility [4]: well water soluble; Solubility ([4]; water, read-out: Concentration of easily prepared aqueous solution): 4000 µg/mL
CCN(CC)CC[n+]1ccc2c(C)c3[nH]c4ccc(O)cc4c3c(C)c2c1 [9-hydroxy-2(β-diethylamino-ethyl)-ellipticinium acetate] | 173% | 151 |  |  | 112 | 5 | 50 | 137 | 139 | 243 | 196 | 100 | + | 6/20 | ILS (increased life span) % ([1]; I.P., dose 0.002 of the sublethal dose): 119%
Cc1c2cc[n+](CCO)cc2c(C)c2c1[nH]c1ccc(O)cc12 [9-hydroxy-2-hydroxyethyl-ellipticinium acetate] | 159% and 151% |  |  | + (increased life span (ILS) higher than 100% after intraperitoneal injection of 10^5 cells) | 146 | 20 | 10 | 115 |  |  | 217 |  | + | 2/15 | ILS (increased life span) % ([1]; I.P., dose 0.05 of the sublethal dose): 133%; ILS (increased life span) % ([1]; I.P., dose 1 (the sublethal dose)): 197%; ILS (increased life span) % ([1]; I.P., dose 1.5 of the sublethal dose): 282%; ILS (increased life span) % ([1]; I.V., dose 0.25 of the sublethal dose): 121%; ILS (increased life span) % ([1]; I.V., dose 0.5 of the sublethal dose): 140%; ILS (increased life span) % ([1]; I.V., dose 2 × 0.5 of the sublethal dose): 142%; ILS (increased life span) % ([1]; I.V., dose 3 × 0.25 of the sublethal dose): 125%; Increased life span (ILS) ([1]; dose LDo /2): 117%; Criterion (iv): persistence of the antileukemic action after an intravenous injection ([2]; L1210 in vivo, intravenous injection): +
CC[n+]1ccc2c(C)c3[nH]c4ccc(OC(C)=O)cc4c3c(C)c2c1 [9-acetoxy-2-ethyl-ellipticinium acetate] | 157% |  | 191 |  |  |  | 50 | 134 | 137 | 180 |  | 100 | + |  | ILS (increased life span) % ([1]; I.P., dose 0.005 of the sublethal dose): 114%; Cured animals ([1]; dose LDo /3): 3/20
Cc1c2ccncc2c(C)c2c1[nH]c1ccc(O)cc12 [Example 9-OH--E, 9-hydroxy-ellipticine, reference compound] |  |  |  |  |  |  |  |  |  |  |  |  |  |  | Metabolism [5]: only glucuroconjugated; Elimination [6]: mostly eliminated through the bile into feces; Organ distribution (autoradiography) [6]: concentrates in several organs, including the lungs and the pancreas; Kd [7]: 435 nM; ED (ILS 25%) ([1]; Mus musculus, L1210, ip, read-out: L 1210 cells: in vivo dose to reach ILS 25%): 10 mg/kg; LDo (highest non lethal dose / sublethal dose) for mice ([3]; route not given): 50 mg/kg
